In US20020137929A1, “1 - (3-heterocyclylphenyl) isothiourea, -isourea, -guanidine and -amidine herbicidal agents” (Intellectual Property Department, BASF Aktiengesellschaft, priority 1998, published 2002):

Tests used:
CASOB (Sicklepod) = assay: Postemergence herbicidal evaluation; format: in vivo, Cassia obtusifolia
Summary of the method: (§1)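 ~2-wk seedlings; postemergence spray, 40 psi; vehicle 1:1 acetone:water + 0.5% Tween 20; rate ≈0.0156–0.500 kg/ha; greenhouse hold; scored 4–5 wk after treatment, 0–9 scale vs control; repeat tests averaged.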

[1] = system: CHEAL (Lambsquarters, Common); assay: Postemergence herbicidal evaluation; format: in vivo, Chenopodium album
Summary of the method: as §1

ECHCG (Barnyardgrass) = assay: Postemergence herbicidal evaluation; format: in vivo, Echinochloa crus-galli
Summary of the method: as §1

ORYSAT (Rice, Tebonnet) [2] = assay: Postemergence herbicidal evaluation; format: in vivo, Oryza sativa, (L.) Tebonnet
Summary of the method: as §1

GALAP (Galium) = assay: Preemergence herbicidal evaluation; format: in vivo, Galium aparine; details: rated 4-5 weeks after treatment
Summary of the method: (§2)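 Rating at 4–5 wk post-spray on a 0–9 visual scale vs control. Application: aqueous acetone, ~0.0156–0.500 kg/ha, to soil surface after seeding, preemergence.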

SETVI (Foxtail, Green) = assay: Preemergence herbicidal evaluation; format: in vivo, Setaria viridis; details: rated 4-5 weeks after treatment
Summary of the method: as §2

[3] = system: GLXMAW (Soybean, Williams); assay: Preemergence herbicidal evaluation; format: in vivo, Glycine max, (L.) Merr. cv Williams; details: rated 4-5 weeks after treatment
Summary of the method: as §2

ORYSAT (Rice, Tebonnet) [4] = assay: Preemergence herbicidal evaluation; format: in vivo, Oryza sativa, (L.) Tebonnet; details: rated 4-5 weeks after treatment
Summary of the method: as §2

[5] = system: TRZAWR (Wheat, Winter, cv Riband); assay: Preemergence herbicidal evaluation; format: in vivo, Triticum aestivum; details: rated 4-5 weeks after treatment
Summary of the method: as §2

ZEAMX (Corn, Field) = assay: Preemergence herbicidal evaluation; format: in vivo, Zea mays; details: rated 4-5 weeks after treatment
Summary of the method: as §2

CYPIR (Rice Flatsedge) = assay: Preemergence weed control under flooded paddy conditions; format: in vivo, Cyperus iria; details: rated 3-4 weeks after treatment
Summary of the method: (§3)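 Seeds or propagules sown in top 0.5 cm of silt loam soil, flooded 1.5 to 3 cm above surface throughout. Compound in 50/50 v/v aqueous/acetone pipetted into flood water at about 0.0313 to 0.500 kg/ha. Visual 0-9 rating versus control after three to four weeks in greenhouse.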

MOOVA (Monochoria) = assay: as above; format: in vivo, Monochoria vaginalis; details: rated 3-4 weeks after treatment
Summary of the method: as §3

[6] = system: SAGPY (Arrowhead (Pygmaea)); assay: as above; format: in vivo, Sagittaria pygmaea; details: rated 3-4 weeks after treatment
Summary of the method: as §3

CYPSE (Flatsedge) = assay: Postemergence weed control under flooded paddy conditions; format: in vivo, Cyperus serotinus; details: postemergence weeds, 3-4 weeks after treatment
Summary of the method: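 Weeds 3 to 5 cm tall and rice seedlings at the 1.5 to 2.5 leaf stage were flooded, with water held 1.5 to 3 cm above the soil. Compounds in 50/50 v/v aqueous/acetone went into the flood water at about 0.0313 to 0.500 kg/ha. Visual 0-9 ratings versus control were made 3 to 4 weeks later.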

SMILES: CCOC(=O)CN1C(=O)C[S+]([O-])/C1=N/c1cc(-n2c(=O)cc(C(F)(F)F)n(C)c2=O)c(F)cc1Cl (stereo not drawn) [Compound 45, 2-{{2-Chloro-5-[3,6-dihydro-3-methyl-2,6-dioxo-4-(trifluoromethyl)-1(2H)-pyrimidinyl]-4-fluoro-phenyl}imino}-4-oxo-3-thiazolidineacetic acid, ethyl ester, 1-oxide]
- Postemergence herbicidal rating CASOB (CASOB (Sicklepod); Rate 0.0156 kg/ha): 0.0
- Postemergence herbicidal rating CASOB (CASOB (Sicklepod); Rate 0.0313 kg/ha): 0.0
- Postemergence herbicidal rating CASOB (CASOB (Sicklepod); Rate 0.0625 kg/ha): 0.0
- Postemergence herbicidal rating CHEAL ([1]; Rate 0.0156 kg/ha): 0.0
- Postemergence herbicidal rating CHEAL ([1]; Rate 0.0313 kg/ha): 5.0
- Postemergence herbicidal rating CHEAL ([1]; Rate 0.0625 kg/ha): 9.0
- Postemergence herbicidal rating ECHCG (ECHCG (Barnyardgrass); Rate 0.0156 kg/ha): 0.0
- Postemergence herbicidal rating ECHCG (ECHCG (Barnyardgrass); Rate 0.0313 kg/ha): 0.0
- Postemergence herbicidal rating ECHCG (ECHCG (Barnyardgrass); Rate 0.0625 kg/ha): 0.0
- Postemergence herbicidal rating ORYSAT (ORYSAT (Rice, Tebonnet) [2]; Rate 0.0156 kg/ha): 1.5
- Postemergence herbicidal rating ORYSAT (ORYSAT (Rice, Tebonnet) [2]; Rate 0.0313 kg/ha): 1.5
- Postemergence herbicidal rating ORYSAT (ORYSAT (Rice, Tebonnet) [2]; Rate 0.0625 kg/ha): 2.0
- Preemergence herbicidal rating GALAP (GALAP (Galium); rate 0.0156 kg/ha): 0.0
- Preemergence herbicidal rating GALAP (GALAP (Galium); rate 0.0313 kg/ha): 0.0
- Preemergence herbicidal rating GALAP (GALAP (Galium); rate 0.0625 kg/ha): 0.0
- Preemergence herbicidal rating GALAP (GALAP (Galium); rate 0.1250 kg/ha): 0.0
- Preemergence herbicidal rating GALAP (GALAP (Galium); rate 0.2500 kg/ha): 7.0
- Preemergence herbicidal rating SETVI (SETVI (Foxtail, Green); rate 0.0156 kg/ha): 0.0
- Preemergence herbicidal rating SETVI (SETVI (Foxtail, Green); rate 0.0313 kg/ha): 0.0
- Preemergence herbicidal rating SETVI (SETVI (Foxtail, Green); rate 0.0625 kg/ha): 0.0
- Preemergence herbicidal rating SETVI (SETVI (Foxtail, Green); rate 0.1250 kg/ha): 0.0
- Preemergence herbicidal rating SETVI (SETVI (Foxtail, Green); rate 0.2500 kg/ha): 0.0
- Preemergence herbicidal rating GLXMAW ([3]; rate 0.0156 kg/ha): 0.0
- Preemergence herbicidal rating GLXMAW ([3]; rate 0.0313 kg/ha): 0.0
- Preemergence herbicidal rating GLXMAW ([3]; rate 0.0625 kg/ha): 0.0
- Preemergence herbicidal rating GLXMAW ([3]; rate 0.1250 kg/ha): 0.0
- Preemergence herbicidal rating GLXMAW ([3]; rate 0.2500 kg/ha): 3.0
- Preemergence herbicidal rating ORYSAT (ORYSAT (Rice, Tebonnet) [4]; rate 0.0156 kg/ha): 0.0
- Preemergence herbicidal rating ORYSAT (ORYSAT (Rice, Tebonnet) [4]; rate 0.0313 kg/ha): 0.0
- Preemergence herbicidal rating ORYSAT (ORYSAT (Rice, Tebonnet) [4]; rate 0.0625 kg/ha): 0.0
- Preemergence herbicidal rating ORYSAT (ORYSAT (Rice, Tebonnet) [4]; rate 0.1250 kg/ha): 0.0
- Preemergence herbicidal rating ORYSAT (ORYSAT (Rice, Tebonnet) [4]; rate 0.2500 kg/ha): 0.0
- Preemergence herbicidal rating TRZAWR ([5]; rate 0.0156 kg/ha): 0.0
- Preemergence herbicidal rating TRZAWR ([5]; rate 0.0313 kg/ha): 0.0
- Preemergence herbicidal rating TRZAWR ([5]; rate 0.0625 kg/ha): 0.0
- Preemergence herbicidal rating TRZAWR ([5]; rate 0.1250 kg/ha): 2.0
- Preemergence herbicidal rating TRZAWR ([5]; rate 0.2500 kg/ha): 5.0
- Preemergence herbicidal rating ZEAMX (ZEAMX (Corn, Field); rate 0.0156 kg/ha): 0.0
- Preemergence herbicidal rating ZEAMX (ZEAMX (Corn, Field); rate 0.0313 kg/ha): 0.0
- Preemergence herbicidal rating ZEAMX (ZEAMX (Corn, Field); rate 0.0625 kg/ha): 0.0
- Preemergence herbicidal rating ZEAMX (ZEAMX (Corn, Field); rate 0.1250 kg/ha): 2.0
- Preemergence herbicidal rating ZEAMX (ZEAMX (Corn, Field); rate 0.2500 kg/ha): 4.0
- Herbicidal rating CYPIR (CYPIR (Rice Flatsedge); 0.0313 kg/ha): 0.0
- Herbicidal rating CYPIR (CYPIR (Rice Flatsedge); 0.0625 kg/ha): 3.0
- Herbicidal rating CYPIR (CYPIR (Rice Flatsedge); 0.1250 kg/ha): 7.0
- Herbicidal rating CYPIR (CYPIR (Rice Flatsedge); 0.2500 kg/ha): 7.0
- Herbicidal rating MOOVA (MOOVA (Monochoria); 0.0313 kg/ha): 7.0
- Herbicidal rating MOOVA (MOOVA (Monochoria); 0.0625 kg/ha): 7.0
- Herbicidal rating MOOVA (MOOVA (Monochoria); 0.1250 kg/ha): 9.0
- Herbicidal rating MOOVA (MOOVA (Monochoria); 0.2500 kg/ha): 9.0
- Herbicidal rating SAGPY ([6]; 0.0313 kg/ha): 0.0
- Herbicidal rating SAGPY ([6]; 0.0625 kg/ha): 0.0
- Herbicidal rating SAGPY ([6]; 0.1250 kg/ha): 0.0
- Herbicidal rating SAGPY ([6]; 0.2500 kg/ha): 4.0
- Herbicidal rating CYPSE (CYPSE (Flatsedge); rate 0.0313 kg/ha): 0.0
- Herbicidal rating CYPSE (CYPSE (Flatsedge); rate 0.0625 kg/ha): 0.0
- Herbicidal rating CYPSE (CYPSE (Flatsedge); rate 0.2500 kg/ha): 0.0
